# Laboratory results: ChEMBL document CHEMBL1201862, “PubChem BioAssay data set” (2004)
#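 Five compound concentrations were applied to cells in 96-well plates for 48 hours; endpoints were derived by simple linear interpolation of the resulting dose-response curve. GI50: concentration for 50% inhibition of growth.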 Calls of active or inactive are those of the source. Cut-off read from the data, not from the text of the source: active = GI50 up to about 1.1 µM and inactive = higher.
# Experiments:
# Assay in all cases: NCI tumour cell line growth inhibition, 48 h
# SF-295 = test system: SF-295
# OVCAR-5 = test system: OVCAR-5
# MDA-MB-435 = test system: MDA-MB-435
# MDA-MB-231 = test system: MDA-MB-231
# SW-620 = test system: SW-620
# ACHN = test system: ACHN
# HOP-62 = test system: HOP-62
# COLO 205 = test system: COLO 205
# RPMI-8226 = test system: RPMI-8226
# TK-10 = test system: TK-10
# T47D = test system: T47D
# HT-29 = test system: HT-29
# HOP-92 = test system: HOP-92
# SK-MEL-5 = test system: SK-MEL-5
# MDA-N = test system: MDA-N
# A549 = test system: A549
# SNB-75 = test system: SNB-75
# SK-MEL-28 = test system: SK-MEL-28
# K562 = test system: K562
Structure (SMILES),GI50 (SF-295),GI50 (OVCAR-5),GI50 (MDA-MB-435),GI50 (MDA-MB-231),GI50 (SW-620),GI50 (ACHN),GI50 (HOP-62),GI50 (COLO 205),GI50 (RPMI-8226),GI50 (TK-10),GI50 (T47D),GI50 (HT-29),GI50 (HOP-92),GI50 (SK-MEL-5),GI50 (MDA-N),GI50 (A549),GI50 (SNB-75),GI50 (SK-MEL-28),GI50 (K562)
CCc1nc(N)nc(N)c1-c1ccc(Cl)c([N+](=O)[O-])c1,0.0637 µM (active),6.11 µM (inactive),0.0752 µM (active),24.4 µM (inactive),0.0475 µM (active),0.1 µM (active),0.596 µM (active),6.71 µM (inactive),0.676 µM (active),17.9 µM (inactive),10.5 µM (inactive),0.0588 µM (active),5.16 µM (inactive),0.417 µM (active),0.0764 µM (active),0.0218 µM (active),4.29 µM (inactive),37.9 µM (inactive),0.0156 µM (active)
COc1ccc(N2C(=O)C3c4[nH]c5ccc(OCc6ccccc6)cc5c4C4CCC(c5ccccc5)CC4C3C2=O)cc1 (stereo not given),11 µM (inactive),30.5 µM (inactive),3.22 µM (inactive),6.35 µM (inactive),2.02 µM (inactive),7.21 µM (inactive),3.37 µM (inactive),10.8 µM (inactive),6.61 µM (inactive),7.55 µM (inactive),7.73 µM (inactive),11 µM (inactive),3.08 µM (inactive),8.22 µM (inactive),22.6 µM (inactive),9.64 µM (inactive),7.82 µM (inactive),1.94 µM (inactive),4.37 µM (inactive)
C[N+]1(C)CCOC(O)(c2ccccc2)C1 (stereo not given),> 100 µM (inactive),> 100 µM (inactive),> 100 µM (inactive),> 100 µM (inactive),> 100 µM (inactive),> 100 µM (inactive),> 100 µM (inactive),> 100 µM (inactive),> 100 µM (inactive),> 100 µM (inactive),> 100 µM (inactive),> 100 µM (inactive),> 100 µM (inactive),> 100 µM (inactive),> 100 µM (inactive),> 100 µM (inactive),> 100 µM (inactive),> 100 µM (inactive),> 100 µM (inactive)
O=C1Nc2ccccc2/C1=C/c1c(Cl)[nH]c2ccc(O)cc12,2.79 µM (inactive),4.04 µM (inactive),0.214 µM (active),1.79 µM (inactive),1.18 µM (inactive),4.7 µM (inactive),2.59 µM (inactive),2.07 µM (inactive),3.43 µM (inactive),10.7 µM (inactive),3.02 µM (inactive),3.16 µM (inactive),5.69 µM (inactive),1.21 µM (inactive),0.194 µM (active),4.54 µM (inactive),1.95 µM (inactive),7.05 µM (inactive),0.649 µM (active)
S=C1/C(=N/c2ccccc2)N(c2ccccc2)/C(=N\c2cccc[n+]2Cc2ccccc2)N1c1ccccc1,13.4 µM (inactive),15.9 µM (inactive),10.6 µM (inactive),14.9 µM (inactive),13.9 µM (inactive),17 µM (inactive),13 µM (inactive),17.1 µM (inactive),17.4 µM (inactive),26.3 µM (inactive),22.8 µM (inactive),16.4 µM (inactive),16.6 µM (inactive),12.8 µM (inactive),11.5 µM (inactive),20.9 µM (inactive),< 0.01 µM (active),17.6 µM (inactive),4.25 µM (inactive)
COc1cc([C@H]2c3cc(O)c(OC)cc3C[C@]3(O)[C@@H]2CO[C@@H]3O)ccc1O,> 100 µM (inactive),> 100 µM (inactive),> 100 µM (inactive),> 100 µM (inactive),> 100 µM (inactive),> 100 µM (inactive),> 100 µM (inactive),> 100 µM (inactive),> 100 µM (inactive),> 100 µM (inactive),> 100 µM (inactive),> 100 µM (inactive),> 100 µM (inactive),> 100 µM (inactive),> 100 µM (inactive),> 100 µM (inactive),> 100 µM (inactive),> 100 µM (inactive),> 100 µM (inactive)
CCOC(=O)NN(C(=O)OCC)C(C(=O)C1=CCCCC1)N(NC(=O)OCC)C(=O)OCC,> 100 µM (inactive),> 100 µM (inactive),> 100 µM (inactive),> 100 µM (inactive),> 100 µM (inactive),> 100 µM (inactive),> 100 µM (inactive),> 100 µM (inactive),> 100 µM (inactive),> 100 µM (inactive),> 100 µM (inactive),> 100 µM (inactive),> 100 µM (inactive),> 100 µM (inactive),> 100 µM (inactive),> 100 µM (inactive),> 100 µM (inactive),> 100 µM (inactive),> 100 µM (inactive)
CCOC(=O)/C=C(/OCC)[C@@H]1C(C(=O)c2ccc(Cl)cc2)[C@H]1/C(=C\C(=O)OCC)OCC (stereo not given in full),> 33.8 µM (inactive),> 100 µM (inactive),> 100 µM (inactive),> 44.4 µM (inactive),> 100 µM (inactive),> 100 µM (inactive),> 100 µM (inactive),95.3 µM (inactive),5.35 µM (inactive),> 40.5 µM (inactive),> 72.9 µM (inactive),> 51.2 µM (inactive),> 34.7 µM (inactive),24.9 µM (inactive),> 100 µM (inactive),> 100 µM (inactive),25.5 µM (inactive),> 100 µM (inactive),4.55 µM (inactive)
COc1ccc2[nH]c3c(c2c1)CCc1c(OC)cccc1-3,> 100 µM (inactive),> 100 µM (inactive),> 100 µM (inactive),> 100 µM (inactive),> 100 µM (inactive),> 100 µM (inactive),53.8 µM (inactive),> 100 µM (inactive),51.9 µM (inactive),> 100 µM (inactive),14.5 µM (inactive),> 100 µM (inactive),> 100 µM (inactive),> 100 µM (inactive),> 100 µM (inactive),> 100 µM (inactive),70 µM (inactive),> 100 µM (inactive),53.6 µM (inactive)
COc1cc2c(c(OC)c1OC)-c1c(cc3c(c1OC)OCO3)CC(C)C(C)(O)C2OC(=O)c1ccccc1 (stereo not given),39.4 µM (inactive),> 100 µM (inactive),55 µM (inactive),20.2 µM (inactive),71.8 µM (inactive),32 µM (inactive),> 100 µM (inactive),22.5 µM (inactive),22 µM (inactive),96.2 µM (inactive),42.3 µM (inactive),25.8 µM (inactive),12.2 µM (inactive),31.1 µM (inactive),60.7 µM (inactive),42.1 µM (inactive),41 µM (inactive),63.7 µM (inactive),46.3 µM (inactive)
